Values quoted from earlier work in patent US8175817B2, “Reciprocal symmetry plots as a new representation of countercurrent chromatograms” (The Board of Trustees of the University of Illinois, priority 2007, dated 2012).

Conditions: octanol/water; extremes of the GUESSmix compounds found in the region of optimal resolution

Log Koctanol/water: 9.52
SMILES: CC(C)CCC[C@@H](C)[C@H]1CC[C@H]2[C@@H]3CC=C4C[C@@H](O)CC[C@]4(C)[C@H]3CC[C@]12C [cholesterol]
